From patent US6521665B1, “Method of treating insulin resistance” (priority 2001, dated 2003)
Like-named read-outs stand apart in the source and are kept apart here.

Legend:
healthy rats = conditions: no changes during thirty days of the experiment
Procedure: (§1) Assays. Plasma free fatty acids levels were determined by enzymatic method with a commercially available kit (Waho Chemicals Gmbh, Neuss, Germany) with Multistat 3 centrifugal analyzer (Instrumentation Laboratories, Lexington, USA).
(§2) Serum glucose concentrations were determined by the glucose oxidase method with a kit (Lachema, Slov.) with glucose analyzer (Beckman, Fullerton, Calif., USA).
(§3) Plasma insulin concentrations were determined by a double-antibody radioimmunoassay kit (Kabi Pharmacia Diagnostics, Uppsala, Sweden) using a rat insulin standard (Novo Research Institute, Bagsvard, Denmark).

[1] = system: streptozotocin-induced rats; conditions: for Mean plasma FFA / Mean plasma insulin / Mean serum glucose: experimental rats, 5 mg per kg s.c. daily for 7 days
Procedure: Animals. Male albino Wistar rats 8-10 weeks of age 200-250 grams of body weight were used. The rats were housed at the temperature of 18±21° C. on a 12 hour light-dark cycle. Rats were fed on a stock laboratory diet (59% carbohydrates; 17% protein; 3% fat; 21% minerals, water, cellulose) and allowed water ad libitum. The streptozotocin (Sigma, St. Louis, Mo., USA) solved in citrate buffer (0.05M, pH 5.5) was injected into tail vein of male albino Wistar rats in a dose of 35 mg per kg of animal body weight to induce decompensated insulin resistance. The rats with levels of glucose more than 14.0 mmol/l were used in the experiment one week after the streptozotocin injection.
as §1, §2, §3
Procedure. Streptozotocin-induced rats were assigned to two groups: a control rats (six rats) and experimental rats (fifteen rats). Experimental rats received daily injection (subcutaneously, 0.5 ml at 09.00 h) of water solution of succinic acid disodium salt hexahydrate in a dose of 5 mg per kg of body weight for period of 7 days.
Plasma free fatty acid levels (FFA), plasma Insulin levels and serum glucose levels were measured in rats by tail clipping method at zero day (before treatment), at third, fifth and seventh days (treatment period), and at tenth, fifteen, twentieth, twenty fifth and thirtieth days (after-treatment period).

[2] = system: non-insulin dependent diabetic humans; conditions: for Mean plasma FFA / Mean plasma High Density Lipoprotein cholesterol (HDL) / Mean plasma Low Density Lipoprotein cholesterol (LDL) / Mean plasma Triglycerides / Mean plasma insulin / Mean serum glucose: NIDDM humans, orally 200 mg to 400 mg per day for 3 to 7 days
From the text: Patients. Twelve non-insulin dependent diabetic humans were studied. Non-insulin Dependent Diabetes Mellitus (NIDDM) was diagnosed in the humans according to the World Health Organisation criteria and had been presented for minimum 5 years. The NIDDM humans were metabolically stable and had glucose levels more than 12.8 mmol/l. Six patients were taking oral sulphonylurea hypoglicemic drug glibenclamide (rec. INN). None of the humans were undergoing hypolipidemic therapy. The humans had no additive metabolic disorders.
Assays. Assays were used as described in the example 1 of the invention. Plasma insulin concentrations were determined by a double-antibody radioimmunoassay kit (Kabi Pharmacia Diagnostics, Uppsala, Sweden).
Procedure. Pharmaceutical grade succinic acid in a unit dosage form of 100 mg per gelatin capsule was used. All patients received succinic acid orally in daily dose of 200 mg to 400 mg per day for period of 3 to 7 days.
Plasma free fatty acid levels, insulin levels and serum glucose levels, plasma high density lipoprotein cholesterol (HDL-cholesterol), low density lipoprotein cholesterol (LDL-cholesterol) and triglycerides were measured in humans at zero day (before treatment ), at third and fifth days (treatment period), and at tenth, fifteen twentieth, twenty fifth thirtieth and fortieth days (after-treatment period).

pancreatic islets = conditions: MacDonald, Fahien, Diabetes 37(7): 997-999 (1988); cited from earlier work
[3] = day 10 (after-treatment period)
[4] = day 15 (after-treatment period)
[5] = day 20 (after-treatment period)
[6] = day 25 (after-treatment period)
[7] = day 30 (after-treatment period)
[8] = day 10 (after treatment period)
[9] = day 15 (after treatment period)
[10] = day 20 (after treatment period)
[11] = day 25 (after treatment period)
[12] = day 30 (after treatment period)
[13] = day 40 (after treatment period)
[14] = day 40 (after-treatment period)

O.O.O.O.O.O.O=C([O-])CCC(=O)[O-].[Na+].[Na+] [succinic acid disodium salt hexahydrate]
plasma free fatty acid levels (healthy rats): 0.08 ± 0.03 mmol/L | plasma insulin levels (healthy rats): 3.4 ± 0.6 ng/mL | serum glucose (healthy rats): 4.8 ± 0.4 mmol/L | Mean plasma FFA ([1]; day 0 (before treatment)): 0.35 ± 0.03 mmol/L | Mean plasma insulin ([1]; day 0 (before treatment)): 11.0 ± 0.7 ng/mL | Mean serum glucose ([1]; day 0 (before treatment)): 15.7 ± 2.6 mmol/L | Mean plasma FFA ([1]; day 3 (treatment period)): 0.32 ± 0.04 mmol/L | Mean plasma insulin ([1]; day 3 (treatment period)): 10.2 ± 1.1 ng/mL | Mean serum glucose ([1]; day 3 (treatment period)): 15.8 ± 3.1 mmol/L | Mean plasma FFA ([1]; day 5 (treatment period)): 0.25 ± 0.06 mmol/L | Mean plasma insulin ([1]; day 5 (treatment period)): 7.4 ± 0.8 ng/mL | Mean serum glucose ([1]; day 5 (treatment period)): 13.0 ± 2.4 mmol/L | Mean plasma FFA ([1]; day 7 (treatment period)): 0.18 ± 0.05 mmol/L | Mean plasma insulin ([1]; day 7 (treatment period)): 4.2 ± 0.7 ng/mL | Mean serum glucose ([1]; day 7 (treatment period)): 10.0 ± 1.2 mmol/L | Mean plasma FFA [1, 3]: 0.20 ± 0.06 mmol/L | Mean plasma insulin [1, 3]: 3.1 ± 0.8 ng/mL | Mean serum glucose [1, 3]: 10.1 ± 2.0 mmol/L | Mean plasma FFA [1, 4]: 0.15 ± 0.03 mmol/L | Mean plasma insulin [1, 4]: 2.4 ± 0.4 ng/mL | Mean serum glucose [1, 4]: 8.1 ± 1.1 mmol/L | Mean plasma FFA [1, 5]: 0.10 ± 0.05 mmol/L | Mean plasma insulin [1, 5]: 2.1 ± 0.4 ng/mL | Mean serum glucose [1, 5]: 6.6 ± 0.8 mmol/L | Mean plasma FFA [1, 6]: 0.11 ± 0.04 mmol/L | Mean plasma insulin [1, 6]: 2.0 ± 0.3 ng/mL | Mean serum glucose [1, 6]: 5.7 ± 0.5 mmol/L | Mean plasma FFA [1, 7]: 0.13 ± 0.04 mmol/L | Mean plasma insulin [1, 7]: 2.1 ± 0.3 ng/mL | Mean serum glucose [1, 7]: 5.4 ± 0.7 mmol/L | insulin sensitivity ([1]; insulin resistant rats in comparison with control insulin resistant rats, maximal efficacy in the after-treatment period): significant improving in insulin sensitivity

O=C(O)CCC(=O)O [succinic acid]
Mean plasma FFA ([2]; day 0 (before treatment)): 0.240 ± 0.044 mmol/L | Mean plasma High Density Lipoprotein cholesterol (HDL) ([2]; day 0 (before treatment)): 0.6 ± 0.4 mmol/L | Mean plasma Low Density Lipoprotein cholesterol (LDL) ([2]; day 0 (before treatment)): 4.8 ± 0.3 mmol/L | Mean plasma Triglycerides ([2]; day 0 (before treatment)): 2.7 ± 0.3 mmol/L | Mean plasma insulin ([2]; day 0 (before treatment)): 140 ± 23 pmol/L | Mean serum glucose ([2]; day 0 (before treatment)): 14.8 ± 1.4 mmol/L | Mean plasma FFA ([2]; day 3 (treatment period)): 0.250 ± 0.071 mmol/L | Mean plasma High Density Lipoprotein cholesterol (HDL) ([2]; day 3 (treatment period)): 0.7 ± 0.2 mmol/L | Mean plasma Low Density Lipoprotein cholesterol (LDL) ([2]; day 3 (treatment period)): 4.9 ± 0.4 mmol/L | Mean plasma Triglycerides ([2]; day 3 (treatment period)): 2.8 ± 0.6 mmol/L | Mean serum glucose ([2]; day 3 (treatment period)): 14.5 ± 1.4 mmol/L | Mean plasma FFA ([2]; day 5 (treatment period)): 0.195 ± 0.064 mmol/L | Mean plasma High Density Lipoprotein cholesterol (HDL) ([2]; day 5 (treatment period)): 0.8 ± 0.2 mmol/L | Mean plasma Low Density Lipoprotein cholesterol (LDL) ([2]; day 5 (treatment period)): 4.7 ± 0.2 mmol/L | Mean plasma Triglycerides ([2]; day 5 (treatment period)): 2.7 ± 0.3 mmol/L | Mean serum glucose ([2]; day 5 (treatment period)): 14.9 ± 1.5 mmol/L | Mean plasma High Density Lipoprotein cholesterol (HDL) [2, 8]: 1.2 ± 0.4 mmol/L | Mean plasma Low Density Lipoprotein cholesterol (LDL) [2, 8]: 4.3 ± 0.6 mmol/L | Mean plasma Triglycerides [2, 8]: 2.5 ± 0.3 mmol/L | Mean plasma FFA [2, 3]: 0.184 ± 0.035 mmol/L | Mean plasma insulin [2, 3]: 134 ± 27 pmol/L | Mean serum glucose [2, 3]: 13.0 ± 2.0 mmol/L | Mean plasma High Density Lipoprotein cholesterol (HDL) [2, 9]: 1.2 ± 0.3 mmol/L | Mean plasma Low Density Lipoprotein cholesterol (LDL) [2, 9]: 4.0 ± 0.3 mmol/L | Mean plasma Triglycerides [2, 9]: 2.4 ± 0.4 mmol/L | Mean plasma FFA [2, 4]: 0.157 ± 0.032 mmol/L | Mean serum glucose [2, 4]: 13.1 ± 0.8 mmol/L | Mean plasma High Density Lipoprotein cholesterol (HDL) [2, 10]: 1.2 ± 0.4 mmol/L | Mean plasma Low Density Lipoprotein cholesterol (LDL) [2, 10]: 3.5 ± 0.4 mmol/L | Mean plasma Triglycerides [2, 10]: 1.8 ± 0.4 mmol/L | Mean plasma FFA [2, 5]: 0.161 ± 0.034 mmol/L | Mean plasma insulin [2, 5]: 124 ± 17 pmol/L | Mean serum glucose [2, 5]: 11.0 ± 1.0 mmol/L | Mean plasma High Density Lipoprotein cholesterol (HDL) [2, 11]: 1.3 ± 0.2 mmol/L | Mean plasma Low Density Lipoprotein cholesterol (LDL) [2, 11]: 3.4 ± 0.3 mmol/L | Mean plasma Triglycerides [2, 11]: 1.3 ± 0.2 mmol/L | Mean plasma FFA [2, 6]: 0.113 ± 0.046 mmol/L | Mean serum glucose [2, 6]: 9.4 ± 1.3 mmol/L | Mean plasma High Density Lipoprotein cholesterol (HDL) [2, 12]: 1.5 ± 0.2 mmol/L | Mean plasma Low Density Lipoprotein cholesterol (LDL) [2, 12]: 3.4 ± 0.2 mmol/L | Mean plasma Triglycerides [2, 12]: 1.1 ± 0.1 mmol/L | Mean plasma FFA [2, 7]: 0.086 ± 0.035 mmol/L | Mean plasma insulin [2, 7]: 118 ± 21 pmol/L | Mean serum glucose [2, 7]: 7.1 ± 0.6 mmol/L | Mean plasma High Density Lipoprotein cholesterol (HDL) [2, 13]: 1.3 ± 0.2 mmol/L | Mean plasma Low Density Lipoprotein cholesterol (LDL) [2, 13]: 3.5 ± 0.4 mmol/L | Mean plasma Triglycerides [2, 13]: 1.4 ± 0.2 mmol/L | Mean plasma FFA [2, 14]: 0.100 ± 0.022 mmol/L | Mean plasma insulin [2, 14]: 112 ± 14 pmol/L | Mean serum glucose [2, 14]: 5.8 ± 1.1 mmol/L | change of plasma triglycerides, LDL cholesterol and HDL cholesterol ([2]; non-insulin dependent diabetic humans, especially in the after-treatment period): reducing plasma triglycerides and low density lipoprotein cholesterol, and increasing plasma high density lipoprotein cholesterol | insulin sensitivity ([2]; non-insulin dependent diabetic humans, maximal efficacy in the after-treatment period): improving in insulin sensitivity | insulin release (pancreatic islets): did not stimulate insulin release
